Measured values from patent US11753622B2, “Medium supplement to increase the efficiency of oocyte maturation and embryo culture in vitro” (The Curators of the University of Missouri, priority 2016, dated 2023).
Marks after values point to notes of the source that are not given here.

How the values were obtained:
[1] = system: oocyte meiotic maturation; test: Kinase inhibitors in FGF2, LIF and IGF-1 supplemented medium, oocyte meiotic maturation; assay type: cell-based, porcine; conditions: PD173074 10 μM, JAK inhibitor I 6 μM, OSI-906 10 μM, PD0325901 10 μM
From the text: FIG. 6. Supplementation of FGF2, LIF and IGF-1 (FLI) regulates the changes of MAPK1/3 activation in cumulus cells (CCs) during IVM. […] Each CC sample was pooled from 50 cumulus oocyte complexes (COCs). This experiment was replicated four times. Asterisk denotes a significant difference between control and treatment, P<0.05. […] The experiments were replicated four times with 1208 oocytes. Different letters denote significant differences, P<0.05.

porcine oocytes = test: Porcine oocyte in vitro maturation (IVM) in cytokine-supplemented medium, then IVF and culture to blastocyst; assay type: cell-based; conditions: for efficiency of producing nuclear matured (MII) oocytes / oocyte developmental competence (ability of zygotes to form blastocysts after IVF): single cytokine in IVM medium; for efficiency of producing nuclear matured (MII) oocytes: 42 hr, versus control; for oocyte developmental competence (ability of zygotes to form blastocysts after IVF): 6 days culture
Procedure: The individual effects of FGF2, LIF, and IGF-1 on maturation of oocytes derived from pre-pubertal pre-pubertal gilts after commercial slaughter were examined after each had been added to an otherwise standard, chemically-defined medium comprised of TCM 199 supplemented with 10 ng/ml EGF, 0.5 μg/ml LH, 0.5 μg/ml FSH, 3.05 mM glucose, 0.91 mM sodium pyruvate, 0.57 mM cysteine, 10 ng/mL gentamicin, and 0.1% polyvinyl alcohol (PVA). After 42 hr in the oocyte maturation medium with the single cytokine addition, oocytes were in vitro fertilized and the resulting zygotes were cultured under standard in vitro culture conditions for 6 days. […] (FIG. 2). Optimal concentrations of FGF2 (40 ng/ml) and LIF (20 ng/ml) were added in combination to the standard IVM medium. The combination of FGF2 and LIF improved nuclear maturation beyond that achieved with the single factors in Example 1 (Table 1). […] The effects of adding the IGF-1 at the optimal concentration of 20 ng/ml in combination with the other two cytokines to the IVM medium was then examined. The combination of all three cytokines (FGF2, LIF, and IGF-1) increased oocyte nuclear maturation to 89%, as compared to 55% in controls (FIG. 5 and Table 2, column 4). After IVF, zygotes from oocytes cultured in medium comprising FGF2, LIF, and IGF-1 advanced to the blastocyst stage more efficiently than controls (49.7% versus 38%). […] Oocytes derived from medium comprising FGF2, LIF, and IGF-1 also provided improved production of blastocysts following somatic cell nuclear transfer (SCNT), which requires removal of nuclear material from the egg followed by fusion of the enucleated oocyte with a somatic donor cell (FIG. 5). [table]

[2] = Table 1, after IVF, means ± SEM
[3] = Table 1, porcine IVM medium, FGF2 40 ng/ml, LIF 20 ng/ml, means ± SEM
[4] = Table 2, IVF embryos cultured in MU1-PZM six days, means ± SEM

Molecule | oocyte meiotic maturation [1] | efficiency of producing nuclear matured (MII) oocytes (porcine oocytes) | oocyte developmental competence (ability of zygotes to form blastocysts after IVF) (porcine oocytes) | also measured
C[C@]1(O)C[C@@H](c2nc(-c3ccc4ccc(-c5ccccc5)nc4c3)c3c(N)nccn32)C1 [OSI-906] | more moderate declines |  |  | 
CCN(CC)CCCCNc1ncc2cc(-c3cc(OC)cc(OC)c3)c(NC(=O)NC(C)(C)C)nc2n1 [PD173074] | more moderate declines |  |  | 
O=C(NOC[C@H](O)CO)c1ccc(F)c(F)c1Nc1ccc(I)cc1F [PD0325901] | almost complete block of meiotic maturation |  |  | 
JAK inhibitor I | more moderate declines |  |  | 
fibroblast growth factor 2 [FGF2] |  | improved | none of the cytokines improved | Blastocysts/Oocyte (%) (porcine oocytes; [2]): 25.6 ± 3.6^ab %; Blastocysts/Zygote (%) (porcine oocytes; [2]): 35.1 ± 4.9^a %; Nuclear Maturation (%) (porcine oocytes; [3]): 73.2 ± 3.4^a %
insulin-like growth factor 1 [IGF-1] |  | improved | none of the cytokines improved | Blastocysts/Oocyte (%) (porcine oocytes; [4]): 33.6 ± 5.5^b %; Blastocysts/Zygote (%) (porcine oocytes; [4]): 44.7 ± 6.7^ab %; Nuclear Maturation (%) (porcine oocytes; Table 2, TCM-199 maturation medium, FGF2 40, LIF 20, IGF-1 20 ng/ml, means ± SEM): 74.8 ± 3.6^b %; Total blastocyst cell number (porcine oocytes; Table 2, day 6 blastocysts, means ± SEM): 34.7 ± 7.8^b
leukemia inhibitory factor [LIF] |  | improved | none of the cytokines improved | Blastocysts/Oocyte (%) (porcine oocytes; [2]): 19.6 ± 3.6^ab %; Blastocysts/Zygote (%) (porcine oocytes; [2]): 25.4 ± 4.0^b %; Nuclear Maturation (%) (porcine oocytes; [3]): 75.7 ± 3.1^a %
